Measurements reported in publication PMC9369442, “Synthetic Peucedanocoumarin IV Prevents α-Synuclein Neurotoxicity in an Animal Model of Parkinson’s Disease” (International Journal of Molecular Sciences, 2022).

Experiments:
[1] = test system: SH-SY5Y cells with Tet-Off conditional expression of β23; assay: Trypan blue exclusion cell viability assay, Tet-Off β23 expression; type: cell-based; details: 1 μM, 24 h
Protocol: Figure 1 Peucedanocoumarin IV (PCiv) inhibits β23 aggregations and cytotoxicity in SH-SY5Y cells. (A) Scheme showing the detailed experimental steps in the organic synthesis of racemic PCiv and racemic PCiii (rac-PCiii, and rac-PCiv). Both PCiii and PCiv used in this study are racemic forms. (B) Trypan blue exclusion cell viability assessment in SH-SY5Y cells with Tet-Off-induced β23 expressions. β23 was expressed for 24 h using the Tet-off system. Further expression of β23 was halted by doxycycline (Dox) treatment with simultaneous treatment of the PCiii, PCiv, or their synthetic intermediate, trans-khellatone (t-khellatone, 1 μM 24 h). Cell viability was assessed 24 h after doxycycline treatment (n = 5 per group). (C) Synthetic PCiv’s protective effect on Tet-Off-expressed β23 toxicity in SH-SY5Y cells compared with peucedanocoumarin III (PCiii) determined by trypan blue exclusion assay. (D) The degradation of β23 monitored by Western blot at 37 h after doxycycline (200 ng/mL) treatment. The representative Western blot image of HA (β23) in SH-SY5Y cells treated with synthetic PCiii, synthetic PCiv (1 μM, 37 h), or DMSO as a vehicle. (E) Quantification of HA (β23) expression in SH-SY5Y cells from the indicated experimental groups in panel D (n = 3 experiments per group). (F) Representative immunofluorescence of steady state HA (β23) expression in SH-SY5Y cells expressing Tet-Off regulatable reporter mCherry and HA-tagged β23. HA-β23 was expressed for 24 h using the Tet-off system. Further expression of β23 was halted by Dox treatment in the presence of PCiii or PCiv (1 μM, 37 h). (G) Quantification of HA (β23) immunofluorescence signal in mCherry positive SH-SY5Y cells in each experimental group (n = 32 cells from three separate experiments per group). The data are expressed as means ± SEMs. * p < 0.05, ** p < 0.01, *** p < 0.001, and **** p < 0.0001, ANOVA test followed by Tukey’s post hoc analysis. Two-way ANOVA was used in panel C.
Human neuroblastoma SH-SY5Y cells (ATCC, Manassas, VA, USA) were grown in complete media containing DMEMs, 10% fetal bovine serum (vol/vol), and antibiotics (penicillin-streptomycin 100 U/mL, Thermo Fisher Scientific, Waltham, MA, USA). The atmospheric condition used to preserve the cells consisted of 5% CO2/95% air at 37 °C and maintained a humidified environment. X-tremeGENE HP transfection reagents (Roche, Basel, Switzerland) were used for transient transfection of DNA constructs (pCMV-tTA, TetP-β23, and pTet-dual2 [5]) following the manufacturer’s instructions.
SH-SY5Y cells were plated in 12-well plates at a density of 0.2 × 10^6 cells per well. Following transient transfection with the indicated constructs and subsequent treatment protocol, the cells were harvested by trypsinization, thereby yielding single-cell suspensions. The cells were washed twice with phosphate-buffered saline (PBS) and resuspended in serum-free DMEM. The resuspended cells were mixed with an equal volume of 0.4% trypan blue (w/v) and incubated for 2 min at room temperature. Live and dead cells were counted using a Countess II Automated Cell Counter (Life Technologies, Carlsbad, CA, USA) for assessing cell viability.

[2] = target: T1, recombinant α-synuclein (Homo sapiens, UniProt P37840); assay: In vitro recombinant α-synuclein aggregation, Western blot; type: biochemical; details: 100 μM, 37 °C, 3 or 5 days
T1 construct: made in house; host or cells: Escherichia coli BL21
Protocol: Figure 2 PCiv prevents α-synuclein aggregation in vitro and in cultured neurons with PFF treatment. (A) Representative Western blots showing the degree of recombinant α-synuclein (αSyn) aggregation in a test tube in the presence or absence of PCiv (100 μM) at the indicated incubation duration (phosphate-buffered saline [PBS], 37 °C for 3 or 5 days). Aggregation of α-synuclein was determined using α-synuclein antibody. (B) Quantification of the relative amount of α-synuclein aggregate in high molecular weight sizes in panel A (n = 3 per group). […] (D) Quantification of pS129-αSyn immunofluorescence signal intensities in MAP2-positive cortical neurons in each experimental group (n = 15 cells from three separate experiments). (E) Cell viability assessment in the indicated experimental groups was monitored by CCK-8 assay (n = 3 per group). The data are expressed as means ± SEMs. * p < 0.05, ** p < 0.01, *** p < 0.001, and **** p < 0.0001, ANOVA test followed by Tukey’s post hoc analysis. […]
(A) Representative Western blots showing the degree of recombinant α-synuclein (αSyn) aggregation in a test tube in the presence or absence of t-Khellatone, PCiii, and PCiv (100 μM) at 0 and 5 days of incubation (phosphate-buffered saline [PBS], 37 °C for 5 days). Aggregation of α-synuclein was determined using α- synuclein antibody. […]

CC1(C)Oc2ccc3ccc(=O)oc3c2C(O)C1O (stereo not drawn) [trans-khellatone, reference compound]
effect on β23-induced cytotoxicity [1]: no effect
aggregation of recombinant α-synuclein into high molecular weight species [2]: failed to prevent
